Converted amounts (≈) assume the structure as drawn.
Experiments:
ERWINIA AMYLOVORA = test: Minimal inhibitory concentration (CMI) at varying pH; type: cell-based
Text: (§1) Une autre conséquence inattendue de la valeur du pH est l'influence sur l'activité antibactérienne elle-même. Selon l'invention, c'est en milieu pH acide que l'on obtient la meilleure activité antibactérienne.
(§2) A titre d'exemple, on donne ci-après les concentrations minimales inhibitrices (CMI) obtenues vis-à-vis de quelques bactéries phytopathogènes en faisant varier le pH.

PSEUDOMONAS SYRINGAE = test: as above; type: cell-based
Text: as §1, §2

PSEUDOMONAS VIRIDIFLAVA = test: as above; type: cell-based
Text: as §1, §2

XANTHOMONAS CYNARAE = test: as above; type: cell-based
Text: as §1, §2

XANTHOMONAS PRUNI = test: as above; type: cell-based
Text: as §1, §2

physchem = conditions: water
Text: Une deuxième solution consiste à diminuer la solubilité du produit.

## CC1CCc2cc(F)cc3c(=O)c(C(=O)O)cn1c23 (centres unmarked) [Fluméquine, acide [1H-5H] dihydro-6,7 fluoro-9 méthyl-5 oxo-1 benzo [i,j] quinolizine carboxylique-2]
ERWINIA AMYLOVORA; pH 5
  concentrations minimales inhibitrices (CMI): 0,1
ERWINIA AMYLOVORA; pH 6,5
  concentrations minimales inhibitrices (CMI): 0,5
ERWINIA AMYLOVORA; pH 7,4
  concentrations minimales inhibitrices (CMI): 1
PSEUDOMONAS SYRINGAE; pH 5
  concentrations minimales inhibitrices (CMI): 0,5
PSEUDOMONAS SYRINGAE; pH 6,5
  concentrations minimales inhibitrices (CMI): 2
PSEUDOMONAS SYRINGAE; pH 7,4
  concentrations minimales inhibitrices (CMI): 4
PSEUDOMONAS VIRIDIFLAVA; pH 5
  concentrations minimales inhibitrices (CMI): 1
PSEUDOMONAS VIRIDIFLAVA; pH 6,5
  concentrations minimales inhibitrices (CMI): 2
PSEUDOMONAS VIRIDIFLAVA; pH 7,4
  concentrations minimales inhibitrices (CMI): 4
XANTHOMONAS CYNARAE; pH 5
  concentrations minimales inhibitrices (CMI): 0,5
XANTHOMONAS CYNARAE; pH 6,5
  concentrations minimales inhibitrices (CMI): 1
XANTHOMONAS CYNARAE; pH 7,4
  concentrations minimales inhibitrices (CMI): 2
XANTHOMONAS PRUNI; pH 5
  concentrations minimales inhibitrices (CMI): 0,25
XANTHOMONAS PRUNI; pH 6,5
  concentrations minimales inhibitrices (CMI): 1
XANTHOMONAS PRUNI; pH 7,4
  concentrations minimales inhibitrices (CMI): 2
physchem; pH 5, water
  solubility: ~100 µg/mL (≈ 383 µM)
physchem; pH 7, water
  solubility: 300 to 400 µg/mL (≈ 1150 to 1530 µM)

Source: patent EP0236230A1, “Aqueous suspensions containing at least one compound chosen from 6,7-dihydrobenzoquinolizine carboxylic acids, and their use in the treatment of plants” (RIKER LABORATORIES, INC., priority 1986, dated 1987)
